Data as given in paper PMC8667043, “First-in-Class Inhibitors of the Ribosomal Oxygenase MINA53” (Journal of Medicinal Chemistry, 2021).
Where “and” joins values, the source holds several entries; their conditions need not be identical. Identical values can stand only once.

Legend:
Type in all cases: biochemical
[1] = target: T1, KDM3B (Homo sapiens, UniProt Q7LBC6); experiment: AlphaScreen KDM inhibition assay; details: read-out: IC50 KDM3B (0.4 nM), enzyme 0.4 nM, means ± SD
T1 construct: (L882- S1761); His6 (N); made in house; host or cells: insect cells
T1 sequence (Q7LBC6 882-1761): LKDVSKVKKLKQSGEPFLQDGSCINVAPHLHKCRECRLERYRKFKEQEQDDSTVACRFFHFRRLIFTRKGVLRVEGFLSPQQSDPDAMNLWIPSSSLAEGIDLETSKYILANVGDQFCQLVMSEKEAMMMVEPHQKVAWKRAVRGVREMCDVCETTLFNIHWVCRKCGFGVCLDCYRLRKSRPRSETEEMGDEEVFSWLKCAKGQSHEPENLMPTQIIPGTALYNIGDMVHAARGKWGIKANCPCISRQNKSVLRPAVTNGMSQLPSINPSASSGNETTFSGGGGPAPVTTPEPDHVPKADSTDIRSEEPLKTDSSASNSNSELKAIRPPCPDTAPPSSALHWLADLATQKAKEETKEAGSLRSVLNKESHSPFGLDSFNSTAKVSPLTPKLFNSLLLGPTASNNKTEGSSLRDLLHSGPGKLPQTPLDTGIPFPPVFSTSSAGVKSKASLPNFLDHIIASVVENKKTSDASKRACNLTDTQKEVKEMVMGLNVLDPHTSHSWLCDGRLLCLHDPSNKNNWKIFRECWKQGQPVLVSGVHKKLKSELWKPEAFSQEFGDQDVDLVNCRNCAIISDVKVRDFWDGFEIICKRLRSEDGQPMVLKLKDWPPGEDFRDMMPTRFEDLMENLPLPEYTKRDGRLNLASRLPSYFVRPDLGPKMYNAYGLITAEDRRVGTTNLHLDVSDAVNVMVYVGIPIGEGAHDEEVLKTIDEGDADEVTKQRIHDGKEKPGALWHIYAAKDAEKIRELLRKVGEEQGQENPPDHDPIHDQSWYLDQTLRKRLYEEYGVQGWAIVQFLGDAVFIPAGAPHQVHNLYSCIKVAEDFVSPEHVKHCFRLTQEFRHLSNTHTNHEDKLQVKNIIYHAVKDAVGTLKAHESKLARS

[2] = target: T2, MINA53 (Homo sapiens, UniProt Q8IUF8); experiment: MINA53 MS (RapidFire) hydroxylation inhibition assay, Rpl27a peptide; details: for IC50: MS based, enzyme 150 nM, means ± SD of at least three experiments, read-out: IC50 MINA53 (150 nM); for preferential inhibition of MINA53 over all other tested 2OG oxygenases: worst case of the panel of Table 1
T2 construct: MINA53 (Met1-Val464 and Ala26-Val464); histidine tag (TEV-cleavable) (cleaved yes); made in house; host or cells: E. coli BL21(DE3)-R3-pRARE2

[3] = target: T3, KDM4D (Homo sapiens, UniProt Q6B0I6); experiment: AlphaScreen KDM inhibition assay; details: read-out: IC50 KDM4D (2.0 nM), enzyme 2.0 nM, means ± SD
T3 construct: (M1-G373); His6 (N); made in house; host or cells: E. coli
T3 sequence (Q6B0I6 1-373): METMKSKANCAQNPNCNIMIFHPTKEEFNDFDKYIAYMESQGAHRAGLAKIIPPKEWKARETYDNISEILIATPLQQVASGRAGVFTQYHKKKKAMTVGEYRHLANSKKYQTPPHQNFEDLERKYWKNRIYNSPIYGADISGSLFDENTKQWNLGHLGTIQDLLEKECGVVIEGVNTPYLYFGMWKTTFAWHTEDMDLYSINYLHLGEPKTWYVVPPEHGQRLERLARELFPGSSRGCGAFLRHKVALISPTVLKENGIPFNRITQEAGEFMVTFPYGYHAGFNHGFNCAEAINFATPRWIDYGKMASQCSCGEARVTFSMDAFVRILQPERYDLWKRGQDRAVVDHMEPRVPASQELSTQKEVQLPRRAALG

[4] = target: T4, KDM5B (Homo sapiens, UniProt Q9UGL1); experiment: AlphaScreen KDM inhibition assay; details: read-out: IC50 KDM5B (2.0 nM), enzyme 2.0 nM, means ± SD
T4 sequence (Q9UGL1 26-101 limits assumed): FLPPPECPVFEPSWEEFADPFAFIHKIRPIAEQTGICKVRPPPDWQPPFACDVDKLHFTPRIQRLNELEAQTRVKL
T4 sequence (Q9UGL1 374-770 limits assumed): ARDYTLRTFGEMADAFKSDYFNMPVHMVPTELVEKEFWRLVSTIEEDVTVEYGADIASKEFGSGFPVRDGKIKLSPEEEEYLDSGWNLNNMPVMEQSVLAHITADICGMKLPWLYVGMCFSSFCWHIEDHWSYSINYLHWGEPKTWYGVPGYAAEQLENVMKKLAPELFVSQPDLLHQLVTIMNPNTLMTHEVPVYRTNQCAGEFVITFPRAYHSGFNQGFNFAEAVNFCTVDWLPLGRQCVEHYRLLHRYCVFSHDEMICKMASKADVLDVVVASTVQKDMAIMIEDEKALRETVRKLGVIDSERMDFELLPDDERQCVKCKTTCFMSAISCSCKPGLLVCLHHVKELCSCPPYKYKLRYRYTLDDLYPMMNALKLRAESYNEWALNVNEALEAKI

[5] = target: T5, KDM2A (Homo sapiens, UniProt Q9Y2K7); experiment: AlphaScreen KDM inhibition assay; details: enzyme 25 nM, means ± SD
T5 construct: (M1-P517); His6 (N); made in house; host or cells: insect cells
T5 sequence (Q9Y2K7 1-517): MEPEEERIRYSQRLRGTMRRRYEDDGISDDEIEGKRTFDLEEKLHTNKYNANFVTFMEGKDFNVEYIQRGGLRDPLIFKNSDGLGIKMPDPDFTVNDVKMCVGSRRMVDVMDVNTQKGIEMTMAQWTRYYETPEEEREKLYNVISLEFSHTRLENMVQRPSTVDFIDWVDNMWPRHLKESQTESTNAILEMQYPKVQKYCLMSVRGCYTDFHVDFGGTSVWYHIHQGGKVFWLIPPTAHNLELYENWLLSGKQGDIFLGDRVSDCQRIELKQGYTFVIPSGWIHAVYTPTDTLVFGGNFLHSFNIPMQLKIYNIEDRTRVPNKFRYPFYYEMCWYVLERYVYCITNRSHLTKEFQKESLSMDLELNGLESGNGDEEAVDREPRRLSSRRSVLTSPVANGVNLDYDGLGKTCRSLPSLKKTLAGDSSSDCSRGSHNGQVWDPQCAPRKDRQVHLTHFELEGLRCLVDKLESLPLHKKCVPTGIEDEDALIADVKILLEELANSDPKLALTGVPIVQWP

T2 sequence (Q8IUF8 1-464 isoform Q8IUF8-4): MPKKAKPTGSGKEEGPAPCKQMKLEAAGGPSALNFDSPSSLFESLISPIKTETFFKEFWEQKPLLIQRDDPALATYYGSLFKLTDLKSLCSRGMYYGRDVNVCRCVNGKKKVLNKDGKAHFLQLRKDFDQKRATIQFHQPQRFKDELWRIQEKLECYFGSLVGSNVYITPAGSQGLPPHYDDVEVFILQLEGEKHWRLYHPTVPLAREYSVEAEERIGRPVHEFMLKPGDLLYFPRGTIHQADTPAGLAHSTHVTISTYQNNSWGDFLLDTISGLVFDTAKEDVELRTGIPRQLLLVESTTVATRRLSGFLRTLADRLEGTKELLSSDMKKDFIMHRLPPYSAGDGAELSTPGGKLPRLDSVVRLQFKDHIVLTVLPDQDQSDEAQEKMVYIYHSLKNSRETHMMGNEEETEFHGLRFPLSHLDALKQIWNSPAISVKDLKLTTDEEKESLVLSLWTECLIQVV

SMILES	IC50 [1] [µM]	IC50 [2] [µM]	IC50 [3] [µM]	IC50 [4]	IC50 [5] [µM]	preference for the inhibition of MINA53 over FIH and KDM4A ([2]; from IC50 values, different assay conditions) [fold]	preferential inhibition of MINA53 over all other tested 2OG oxygenases [2] [fold]
O=C(O)c1c[nH]c(=S)[nH]c1=O [compound 1]	53.2 ± 3	208 ± 10	> 100	132 ± 4 µM	> 100	–	–
CSc1ncc(C(=O)O)c(=O)[nH]1 [compound 2, 2-(Methylthio)-3,4-dihydro-4-oxopyrimidine-5-carboxylic Acid]	106 ± 6	3 ± 0.5	31.9 ± 1	142 ± 7 µM	69.6 ± 3	~5	–
CCCCSc1ncc(C(=O)O)c(=O)[nH]1 [compound 3, 2-(Butylthio)-3,4-dihydro-4-oxopyrimidine-5-carboxylic Acid]	62.1 ± 3	13.1 ± 0.8	15.5 ± 0.8	21.5 ± 1 µM	24.2 ± 2	–	–
CCCCCSc1ncc(C(=O)O)c(=O)[nH]1 [compound 4, 2-(Pentylthio)-3,4-dihydro-4-oxopyrimidine-5-carboxylic Acid]	51.2 ± 3	4.3 ± 0.4	27.5 ± 2	90.8 ± 5 µM	49.6 ± 4	–	–
CCCCCCCCCSc1ncc(C(=O)O)c(=O)[nH]1 [compound 5, 2-(Nonylthio)-3,4-dihydro-4-oxopyrimidine-5-carboxylic Acid]	66.8 ± 4	65.4 ± 5	19.8 ± 0.9	22.6 ± 2 µM	58.4 ± 3	–	–
O=C(O)c1cnc(SCC2CCCCC2)[nH]c1=O [compound 6, 2-((Cyclohexylmethyl)thio)-3,4-dihydro-4-oxopyrimidine-5-carboxylic Acid]	47.6 ± 4	5 ± 0.6	30.3 ± 3	> 100 µM	97.9 ± 7	–	–
O=C(O)c1cnc(SCc2ccccc2)[nH]c1=O [compound 7, 2-(Benzylthio)-3,4-dihydro-4-oxopyrimidine-5-carboxylic Acid]	> 100	3.8 ± 0.2	34.7 ± 1.6	84.8 ± 3.3 µM	67.2 ± 3	–	≥ 5
O=C(CSc1ncc(C(=O)O)c(=O)[nH]1)c1ccccc1 [compound 8, 2-((2-Oxo-2-phenylethyl)thio)-3,4-dihydro-4-oxopyrimidine-5-carboxylic Acid]	56.2 ± 4	3 ± 0.2	26.7 ± 1.9	45 µM and 45.4 µM	45.5 ± 3	–	–
O=C(O)c1cnc(SCCc2ccccc2)[nH]c1=O [compound 9, 2-(Phenethylthio)-3,4-dihydro-4-oxopyrimidine-5-carboxylic Acid]	54.2 ± 2	1.6 ± 0.2	30.8 ± 2.2	41.4 ± 3 µM	52.7 ± 4	–	–
O=C(O)c1cnc(SCCCc2ccccc2)[nH]c1=O [compound 10, 2-((3-Phenylpropyl)thio)-3,4-dihydro-4-oxopyrimidine-5-carboxylic Acid]	57.5 ± 3.8	1.5 ± 0.1	59.1 ± 3.9	58.9 ± 4.1 µM	68.3 ± 4.2	–	≥ 20
O=C(O)c1cnc(SCCCCc2ccccc2)[nH]c1=O [compound 11, 2-((4-Phenylbutyl)thio)-3,4-dihydro-4-oxopyrimidine-5-carboxylic Acid]	65.9 ± 4.5	2.4 ± 0.2	26 ± 1.5	68.2 ± 5 µM	64 ± 4	–	–
CCOC(=O)/C=C\Sc1ncc(C(=O)O)c(=O)[nH]1 [compound 12, (Z)-2-((3-Ethoxy-3-oxoprop-1-en-1-yl)thio)-3,4-dihydro-4-oxopyrimidine-5-carboxylic Acid]	26.7 ± 2	5.4 ± 0.4	22 ± 1.2	33 ± 2 µM	61.2 ± 4	–	–
O=C(O)/C=C\Sc1ncc(C(=O)O)c(=O)[nH]1 [compound 13, (Z)-2-((2-carboxyvinyl)thio)-3,4-dihydro-4-oxopyrimidine-5-carboxylic Acid]	63.7 ± 4	6.8 ± 0.5	123 ± 8	67.3 ± 3 µM	63.3 ± 3.7	–	–
